Publication PMC5003625 (Journal of medicinal chemistry, 2016)

Key:
[1] = target: EZH1 pentameric complex (EZH1:EED:SUZ12:RBBP4:AEBP2) (Homo sapiens, UniProt Q92800); assay: Methyltransferase activity assay; assay type: biochemical; conditions: for fold loss of potency for EZH1: relative to the parent compound 5
[2] = target: EZH2 trimeric complex (EZH2:EED:SUZ12) (Homo sapiens, UniProt Q15910); assay: Methyltransferase activity assay; assay type: biochemical; conditions: for fold loss of potency for EZH2: relative to the parent compound of the sentence (5, 24 or 53)
EZH2 trimeric complex (EZH2:EED:SUZ12), sequence (Q15910 whole entry): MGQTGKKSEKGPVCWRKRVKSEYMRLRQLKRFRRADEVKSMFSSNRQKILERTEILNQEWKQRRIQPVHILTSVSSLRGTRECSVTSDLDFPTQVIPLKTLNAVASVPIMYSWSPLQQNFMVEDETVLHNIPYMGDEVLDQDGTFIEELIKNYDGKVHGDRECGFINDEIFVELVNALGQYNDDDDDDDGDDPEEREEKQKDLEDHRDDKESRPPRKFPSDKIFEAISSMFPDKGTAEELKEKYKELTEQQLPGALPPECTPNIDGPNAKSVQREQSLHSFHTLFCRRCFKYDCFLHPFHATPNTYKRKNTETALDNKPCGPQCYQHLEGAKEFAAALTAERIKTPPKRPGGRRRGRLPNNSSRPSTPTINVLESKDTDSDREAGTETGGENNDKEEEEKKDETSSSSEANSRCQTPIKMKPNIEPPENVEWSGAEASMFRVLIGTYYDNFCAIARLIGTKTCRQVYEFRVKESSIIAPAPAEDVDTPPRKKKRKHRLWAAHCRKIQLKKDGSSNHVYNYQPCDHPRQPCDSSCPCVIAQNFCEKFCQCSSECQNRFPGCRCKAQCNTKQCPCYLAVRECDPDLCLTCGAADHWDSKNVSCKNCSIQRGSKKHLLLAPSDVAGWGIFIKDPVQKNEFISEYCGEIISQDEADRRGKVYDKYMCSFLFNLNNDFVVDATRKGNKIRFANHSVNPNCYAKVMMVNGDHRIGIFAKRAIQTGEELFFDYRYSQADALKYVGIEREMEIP
EZH2 trimeric complex (EZH2:EED:SUZ12), sequence (O75530 whole entry partner): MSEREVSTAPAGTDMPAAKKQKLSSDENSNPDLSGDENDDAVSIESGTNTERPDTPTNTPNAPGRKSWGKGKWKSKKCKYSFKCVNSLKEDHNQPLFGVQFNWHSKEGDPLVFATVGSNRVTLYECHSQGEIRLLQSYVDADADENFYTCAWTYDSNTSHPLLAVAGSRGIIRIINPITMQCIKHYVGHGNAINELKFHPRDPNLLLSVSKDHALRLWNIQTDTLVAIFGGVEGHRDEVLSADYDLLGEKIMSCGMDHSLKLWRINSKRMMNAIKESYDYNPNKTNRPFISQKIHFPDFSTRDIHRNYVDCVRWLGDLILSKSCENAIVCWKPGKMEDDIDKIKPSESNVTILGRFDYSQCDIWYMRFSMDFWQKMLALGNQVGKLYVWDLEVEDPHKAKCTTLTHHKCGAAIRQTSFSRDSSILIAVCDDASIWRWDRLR
EZH2 trimeric complex (EZH2:EED:SUZ12), sequence (Q15022 whole entry partner): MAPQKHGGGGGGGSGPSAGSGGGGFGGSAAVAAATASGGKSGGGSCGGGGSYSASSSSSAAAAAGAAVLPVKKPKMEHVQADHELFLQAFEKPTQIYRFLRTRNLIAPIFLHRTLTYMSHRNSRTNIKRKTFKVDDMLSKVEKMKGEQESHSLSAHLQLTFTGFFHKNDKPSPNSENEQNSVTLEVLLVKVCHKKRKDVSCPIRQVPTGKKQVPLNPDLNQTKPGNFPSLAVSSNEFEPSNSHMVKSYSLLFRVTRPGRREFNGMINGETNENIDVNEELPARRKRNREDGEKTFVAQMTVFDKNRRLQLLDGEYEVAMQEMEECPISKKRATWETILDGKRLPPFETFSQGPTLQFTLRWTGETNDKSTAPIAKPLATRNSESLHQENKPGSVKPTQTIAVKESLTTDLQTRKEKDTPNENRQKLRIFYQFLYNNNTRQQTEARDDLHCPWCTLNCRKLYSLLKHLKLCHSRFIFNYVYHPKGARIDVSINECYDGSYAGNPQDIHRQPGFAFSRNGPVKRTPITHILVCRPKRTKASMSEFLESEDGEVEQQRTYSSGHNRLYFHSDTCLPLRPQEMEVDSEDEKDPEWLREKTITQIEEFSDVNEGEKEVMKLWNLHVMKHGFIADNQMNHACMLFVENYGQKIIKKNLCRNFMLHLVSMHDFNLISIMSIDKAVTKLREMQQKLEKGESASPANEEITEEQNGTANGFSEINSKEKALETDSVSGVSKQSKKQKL

EZH1 pentameric complex (EZH1:EED:SUZ12:RBBP4:AEBP2), sequence (Q92800 whole entry): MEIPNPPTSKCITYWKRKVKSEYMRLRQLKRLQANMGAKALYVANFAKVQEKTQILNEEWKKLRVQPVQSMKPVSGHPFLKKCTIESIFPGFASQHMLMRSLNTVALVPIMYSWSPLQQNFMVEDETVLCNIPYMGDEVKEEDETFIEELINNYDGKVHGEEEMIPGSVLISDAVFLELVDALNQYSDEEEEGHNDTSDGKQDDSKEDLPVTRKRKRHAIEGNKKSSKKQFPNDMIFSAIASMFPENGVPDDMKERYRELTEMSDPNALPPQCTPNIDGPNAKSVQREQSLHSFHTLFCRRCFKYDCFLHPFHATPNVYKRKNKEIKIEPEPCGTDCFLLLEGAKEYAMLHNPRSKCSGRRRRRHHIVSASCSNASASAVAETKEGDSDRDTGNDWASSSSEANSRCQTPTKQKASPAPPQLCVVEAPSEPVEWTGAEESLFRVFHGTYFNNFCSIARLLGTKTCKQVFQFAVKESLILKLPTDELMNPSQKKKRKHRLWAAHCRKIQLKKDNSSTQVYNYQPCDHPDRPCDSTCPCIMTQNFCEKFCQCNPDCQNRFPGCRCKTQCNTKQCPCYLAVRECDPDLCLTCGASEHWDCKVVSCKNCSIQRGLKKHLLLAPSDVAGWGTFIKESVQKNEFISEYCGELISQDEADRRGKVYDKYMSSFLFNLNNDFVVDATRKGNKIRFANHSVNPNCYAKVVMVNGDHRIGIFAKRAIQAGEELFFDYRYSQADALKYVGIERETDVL
EZH1 pentameric complex (EZH1:EED:SUZ12:RBBP4:AEBP2), sequence (O75530 whole entry partner): as the sequence (O75530 whole entry partner) above
EZH1 pentameric complex (EZH1:EED:SUZ12:RBBP4:AEBP2), sequence (Q15022 whole entry partner): as the sequence (Q15022 whole entry partner) above
EZH1 pentameric complex (EZH1:EED:SUZ12:RBBP4:AEBP2), sequence (Q09028 whole entry partner): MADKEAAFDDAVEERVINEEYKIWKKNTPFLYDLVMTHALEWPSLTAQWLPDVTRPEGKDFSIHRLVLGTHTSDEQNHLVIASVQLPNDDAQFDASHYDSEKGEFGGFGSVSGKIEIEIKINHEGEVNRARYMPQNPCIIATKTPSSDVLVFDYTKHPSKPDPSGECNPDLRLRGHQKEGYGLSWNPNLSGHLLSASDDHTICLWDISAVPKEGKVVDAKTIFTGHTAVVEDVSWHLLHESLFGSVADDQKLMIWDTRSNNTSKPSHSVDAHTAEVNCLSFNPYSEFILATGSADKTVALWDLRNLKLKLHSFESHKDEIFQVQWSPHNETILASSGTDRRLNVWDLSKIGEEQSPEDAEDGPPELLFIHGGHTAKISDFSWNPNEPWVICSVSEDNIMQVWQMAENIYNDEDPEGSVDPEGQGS
EZH1 pentameric complex (EZH1:EED:SUZ12:RBBP4:AEBP2), sequence (Q6ZN18 whole entry partner): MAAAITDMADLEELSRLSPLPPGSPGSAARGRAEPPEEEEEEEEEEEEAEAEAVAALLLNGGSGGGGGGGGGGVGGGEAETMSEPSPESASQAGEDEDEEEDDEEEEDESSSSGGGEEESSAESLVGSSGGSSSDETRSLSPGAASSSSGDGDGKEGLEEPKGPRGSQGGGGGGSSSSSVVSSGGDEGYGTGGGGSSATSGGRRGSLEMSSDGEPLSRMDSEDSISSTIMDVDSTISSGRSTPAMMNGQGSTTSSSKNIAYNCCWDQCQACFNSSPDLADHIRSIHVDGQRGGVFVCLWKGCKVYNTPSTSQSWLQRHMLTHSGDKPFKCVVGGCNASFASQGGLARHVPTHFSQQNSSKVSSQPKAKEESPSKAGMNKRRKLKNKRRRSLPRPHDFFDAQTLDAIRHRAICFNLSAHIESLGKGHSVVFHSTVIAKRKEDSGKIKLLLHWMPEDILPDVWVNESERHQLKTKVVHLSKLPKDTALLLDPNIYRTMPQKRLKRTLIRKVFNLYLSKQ

| Structure (SMILES) | inhibitory activity against EZH1, in words [1] | inhibitory activity against EZH2, in words [2] | also measured |
| --- | --- | --- | --- |
| CCc1cc(C)[nH]c(=O)c1CNC(=O)c1cc(-c2ccc(N3CCN(C(C)C)CC3)nc2)cc2c1cnn2C(C)C [Compound 25, N-((4-Ethyl-6-methyl-2-oxo-1,2-dihydropyridin-3-yl)methyl)-1-isopropyl-6-(6-(4-isopropylpiperazin-1-yl)pyridin-3-yl)-1H-indazole-4-carboxamide] |  |  | fold increase in EZH1 potency ([1]; relative to compound 24): more than 3 fold |
| CCc1cc(C)c(CNC(=O)c2cc(-c3ccc(N4CCN(C(C)C)CC4)nc3)cc3c2cnn3C(C)C)c(=O)[nH]1 [Compound 30, N-((6-Ethyl-4-methyl-2-oxo-1,2-dihydropyridin-3-yl)methyl)-1-isopropyl-6-(6-(4-isopropylpiperazin-1-yl)pyridin-3-yl)-1H-indazole-4-carboxamide] | did not exhibit appreciable inhibitory activity |  |  |
| CCC(C)c1cc(C)c(CNC(=O)c2cc(-c3ccc(N4CCN(C(C)C)CC4)nc3)cc3c2cnn3C(C)C)c(=O)[nH]1 (stereo not shown) [Compound 31, N-((6-(sec-Butyl)-4-methyl-2-oxo-1,2-dihydropyridin-3-yl)-methyl)-1-isopropyl-6-(6-(4-isopropylpiperazin-1-yl)pyridin-3-yl)-1H-indazole-4-carboxamide] | did not exhibit appreciable inhibitory activity |  |  |
| Cc1cc(C(C)(C)C)[nH]c(=O)c1CNC(=O)c1cc(-c2ccc(N3CCN(C(C)C)CC3)nc2)cc2c1cnn2C(C)C [Compound 32, N-((6-(tert-Butyl)-4-methyl-2-oxo-1,2-dihydropyridin-3-yl)-methyl)-1-isopropyl-6-(6-(4-isopropylpiperazin-1-yl)pyridin-3-yl)-1H-indazole-4-carboxamide] | complete loss of potency | complete loss of potency |  |
| Cc1cc(-c2ccccc2)[nH]c(=O)c1CNC(=O)c1cc(-c2ccc(N3CCN(C(C)C)CC3)nc2)cc2c1cnn2C(C)C [Compound 33, 1-Isopropyl-6-(6-(4-isopropylpiperazin-1-yl)pyridin-3-yl)-N-((4-methyl-2-oxo-6-phenyl-1,2-dihydropyridin-3-yl)methyl)-1H-inda-zole-4-carboxamide] | complete loss of potency | complete loss of potency |  |
| CC(C)N1CCN(c2ccc(-c3cc(C(=O)NCc4ccc[nH]c4=O)c4cnn(C(C)C)c4c3)cn2)CC1 [Compound 34, 1-Isopropyl-6-(6-(4-isopropylpiperazin-1-yl)pyridin-3-yl)-N-((2-oxo-1,2-dihydropyridin-3-yl)methyl)-1H-indazole-4-carboxamide] |  |  | fold loss of potency for EZH2 [2]: > 500 fold |
| Cc1cc(O)c(CNC(=O)c2cc(-c3ccc(N4CCN(C(C)C)CC4)nc3)cc3c2cnn3C(C)C)c(=O)[nH]1 [Compound 39, N-((4-Hydroxy-6-methyl-2-oxo-1,2-dihydropyridin-3-yl)methyl)-1-isopropyl-6-(6-(4-isopropylpiperazin-1-yl)pyridin-3-yl)-1H-inda-zole-4-carboxamide] | total loss of potency | total loss of potency |  |
| Cc1ncc(CNC(=O)c2cc(-c3ccc(N4CCN(C(C)C)CC4)nc3)cc3c2cnn3C(C)C)c(=O)[nH]1 [Compound 40, 1-Isopropyl-6-(6-(4-isopropylpiperazin-1-yl)pyridin-3-yl)-N-((2-methyl-6-oxo-1,6-dihydropyrimidin-5-yl)methyl)-1H-indazole-4-carboxamide] | completely abrogated inhibitory activity | completely abrogated inhibitory activity |  |
| CCCc1cc(C)[nH]c(=O)c1CNC(=O)c1cc(-c2ccc(N3CCN(C(C)C)CC3)nc2)c2cnn(C(C)C)c2c1 [Compound 47, 1-Isopropyl-4-(6-(4-isopropylpiperazin-1-yl)pyridin-3-yl)-N-((6-methyl-2-oxo-4-propyl-1,2-dihydropyridin-3-yl)methyl)-1H-inda-zole-6-carboxamide] | abolished all EZH1 inhibition |  |  |
| CCCc1cc(C)[nH]c(=O)c1CNC(=O)c1cc(-c2ccc(N3CCN(C(C)C)CC3)nc2)cc2c1cnn2CC1CCCC1 [Compound 58, 1-(Cyclopentylmethyl)-6-(6-(4-isopropylpiperazin-1-yl)pyridin-3-yl)-N-((6-methyl-2-oxo-4-propyl-1,2-dihydropyridin-3-yl)methyl)-1H-indazole-4-carboxamide] |  |  | fold loss of potency for EZH2 [2]: > 15 fold |
| CCCc1cc(C)[nH]c(=O)c1CNC(=O)c1cc(-c2ccc(N3CCN(C(C)C)CC3)nc2)cc2c1cnn2CC1CCCCC1 [Compound 59, 1-(Cyclohexylmethyl)-6-(6-(4-isopropylpiperazin-1-yl)pyridin-3-yl)-N-((6-methyl-2-oxo-4-propyl-1,2-dihydropyridin-3-yl)methyl)-1H-indazole-4-carboxamide] |  | significant drop in potency |  |
| CCCc1cc(C)[nH]c(=O)c1CNC(=O)c1cc(-c2ccc(N3CCN(C(C)C)CC3)nc2)cc2c1cnn2CCC1CCCCC1 [Compound 62, 1-(2-Cyclohexylethyl)-6-(6-(4-isopropylpiperazin-1-yl)pyridin-3-yl)-N-((6-methyl-2-oxo-4-propyl-1,2-dihydropyridin-3-yl)methyl)-1H-indazole-4-carboxamide] |  | significant drop in potency |  |
| CCCc1cc(C)[nH]c(=O)c1CNC(=O)c1cc(C2CCNCC2)cc2c1cnn2C(C)C [Compound 72, 1-Isopropyl-N-((6-methyl-2-oxo-4-propyl-1,2-dihydropyridin-3-yl)methyl)-6-(piperidin-4-yl)-1H-indazole-4-carboxamide] |  |  | fold loss of potency for EZH1 [1]: more than 10 fold |
| CCCc1cc(C)[nH]c(=O)c1CNC(=O)c1cc(N2CCNCC2)cc2c1cnn2C(C)C [Compound 73, 1-Isopropyl-N-((6-methyl-2-oxo-4-propyl-1,2-dihydropyridin-3-yl)methyl)-6-(piperazin-1-yl)-1H-indazole-4-carboxamide] |  |  | fold loss of potency for EZH1 [1]: more than 10 fold |
| CCCc1cc(C)[nH]c(=O)c1CNC(=O)c1cc(Br)cc2c1cnn2C(C)C [Compound 76, 6-Bromo-1-isopropyl-N-((6-methyl-2-oxo-4-propyl-1,2-dihydro-pyridin-3-yl)methyl)-1H-indazole-4-carboxamide] |  |  | fold loss of potency for EZH2 [2]: 3–4 fold |

Now from value to molecule, other results behind:

| inhibitory activity against EZH1, in words [1] | inhibitory activity against EZH2, in words [2] | Structure (SMILES) | also measured |
| --- | --- | --- | --- |
|  | relatively good potency | CCCc1cc(C)[nH]c(=O)c1CNC(=O)c1cc(-c2ccccc2)cc2c1cnn2C(C)C [Compound 66, 1-Isopropyl-N-((6-methyl-2-oxo-4-propyl-1,2-dihydropyridin-3-yl)methyl)-6-phenyl-1H-indazole-4-carboxamide] |  |
|  | relatively good potency | CCCc1cc(C)[nH]c(=O)c1CNC(=O)c1cc(-c2ccc(F)cc2)cc2c1cnn2C(C)C [Compound 67] |  |
|  | relatively good potency | CCCc1cc(C)[nH]c(=O)c1CNC(=O)c1cc(-c2ccc(C(F)(F)F)cc2)cc2c1cnn2C(C)C [Compound 68, 1-Isopropyl-N-((6-methyl-2-oxo-4-propyl-1,2-dihydropyridin-3-yl)methyl)-6-(4-(trifluoromethyl)phenyl)-1H-indazole-4-carboxa-mide] |  |
